How the values were obtained:
[1] = biological target: T1, Human PDE10A2 (Homo sapiens (Human), UniProt Q9Y233); test: cell-based; settings: Forskolin 10 μM; read-out: cAMP HTRF Assay in HEK 293 rhPDE10A2 cell line (pIC50) (converted)
Description: Semi log compound dilutions starting at a final concentration of 10 μM were dispensed into a white 384 well plate, alongside DMSO and an Inhibited control using the Tecan D300e digital dispenser. HEK 293 cells overexpressing recombinant human PDE10A2 were seeded on top of the compounds at 2500 cells/well in a volume 5 μL/well. The plate was incubated at room temperature for 60 minutes. To induce endogenous cAMP, 5 μL/well of Forskolin at a final assay concentration of 10 μM was added to the plate. The plate was incubated at room temperature for a further 45 minutes. cAMP HTRF detection reagents were added, and the plate was incubated for 60 minutes at room temperature. […] Data was analysed using a 4-parameter fit.

[2] = biological target: T1, Human PDE10A2; test: biochemical; assay type: biochemical; settings: human PDE10A2 0.25 nM, cGMP 3 μM
Description: Semi Log compound dilutions starting at a final concentration of 50 μM were dispensed into a black 384 well plate alongside, DMSO and an Inhibited control using the Echo Acoustic dispenser. […] Data was analysed using a 4-parameter fit.

T1 sequence (Q9Y233 267-1055): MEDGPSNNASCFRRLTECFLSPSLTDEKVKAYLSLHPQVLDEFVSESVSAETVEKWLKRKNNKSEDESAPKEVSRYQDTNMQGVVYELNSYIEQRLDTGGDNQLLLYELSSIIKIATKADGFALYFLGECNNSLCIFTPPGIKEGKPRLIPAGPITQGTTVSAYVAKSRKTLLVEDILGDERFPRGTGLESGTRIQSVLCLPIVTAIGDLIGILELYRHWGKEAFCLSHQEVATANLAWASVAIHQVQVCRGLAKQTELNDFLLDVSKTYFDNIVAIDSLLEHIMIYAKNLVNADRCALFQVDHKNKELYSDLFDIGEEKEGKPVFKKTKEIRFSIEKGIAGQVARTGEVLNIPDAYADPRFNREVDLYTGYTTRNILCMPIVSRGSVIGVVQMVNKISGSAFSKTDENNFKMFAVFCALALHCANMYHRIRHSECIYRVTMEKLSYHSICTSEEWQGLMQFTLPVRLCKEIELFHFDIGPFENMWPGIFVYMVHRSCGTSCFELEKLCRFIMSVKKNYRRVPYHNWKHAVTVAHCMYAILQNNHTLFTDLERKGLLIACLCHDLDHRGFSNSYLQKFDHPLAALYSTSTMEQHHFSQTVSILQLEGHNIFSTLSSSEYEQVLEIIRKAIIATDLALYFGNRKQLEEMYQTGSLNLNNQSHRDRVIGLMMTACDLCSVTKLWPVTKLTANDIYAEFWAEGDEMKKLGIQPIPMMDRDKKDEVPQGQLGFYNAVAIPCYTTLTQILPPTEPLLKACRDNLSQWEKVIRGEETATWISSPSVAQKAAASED

SMILES | IC50 [1] [nM] | PDE10A2 Phosphate Sensor Enzyme Assay (pIC50) [2]
Cn1cc(-c2ccccc2)nc1C#Cc1nc(N2CC3(COC3)C2)c2cnn(C)c2n1 [Example 3, 6-[1-Methyl-6-[2-(1-methyl-4-phenyl-imidazol-2-yl)ethynyl]pyrazolo[3,4-d]pyrimidin-4-yl]-2-oxa-6-azaspiro[3.3]heptane] | 0.275 | 9.99
Cn1cc(-c2ccccc2)nc1C#Cc1nc(N2CC3(COC3)C2)c2ncn(C)c2n1 [Example 1, 6-[9-Methyl-2-[2-(1-methyl-4-phenyl-imidazol-2-yl)ethynyl]purin-6-yl]-2-oxa-6-azaspiro[3.3]heptane] | 1.17 | 9.26
C[C@@H]1COCCN1c1nc(C#Cc2nc(-c3ccccc3)cn2C)nc2c1CCNC2 [Example 12, (3R)-3-Methyl-4-[2-[2-(1-methyl-4-phenyl-imidazol-2-yl)ethynyl]-5,6,7,8-tetrahydropyrido[3,4-d]pyrimidin-4-yl]morpholine] | 0.437 | 10.40
Cn1cc(-c2ccccc2)nc1C#Cc1nc(N2C[C@H]3COC[C@H]3C2)c2ncn(C)c2n1 [Example 20, (3aR,6aS)-5-(9-Methyl-2-((1-methyl-4-phenyl-1H-imidazol-2-yl)ethynyl)-9H-purin-6-yl)hexahydro-1H-furo[3,4-c]pyrrole] | 8.71 | 9.53
CC(C)n1ncc2c(N3C[C@H]4COC[C@H]4C3)nc(C#Cc3nc(-c4ccccc4)cn3C)nc21 [Example 18, (3aR,6aS)-5-(1-isoPropyl-6-((1-methyl-4-phenyl-1H-imidazol-2-yl)ethynyl)-1H-pyrazolo[3,4-d]pyrimidin-4-yl)hexahydro-1H-furo[3,4-c]pyrrole] | 0.617 | 9.99
CC(C)n1ncc2c(N3C[C@H]4COC[C@H]4C3)nc(C#Cc3nc(-c4ccccc4)c[nH]3)nc21 [Example 25, (3aR,6aS)-5-(1-isoPropyl-6-((4-phenyl-1H-imidazol-2-yl)ethynyl)-1H-pyrazolo[3,4-d]pyrimidin-4-yl)hexahydro-1H-furo[3,4-c]pyrrole] | – | 9.95
Cn1cc(-c2cccnc2)nc1C#Cc1nc(N2CC3(COC3)C2)c2ncn(C)c2n1 [Example 2, 6-[9-Methyl-2-[2-[1-methyl-4-(3-pyridyl)imidazol-2-yl]ethynyl]purin-6-yl]-2-oxa-6-azaspiro[3.3]heptane] | 1.55 | 8.62
Cn1cc(-c2ccccc2)nc1C#Cc1nc(N2CC3(COC3)C2)c2cnn(C3CCOCC3)c2n1 [Example 6, 6-[6-[2-(1-Methyl-4-phenyl-imidazol-2-yl)ethynyl]-1-tetrahydropyran-4-yl-pyrazolo[3,4-d]pyrimidin-4-yl]-2-oxa-6-azaspiro[3.3]heptane] | 14.8 | 9.20
C[C@@H]1COCCN1c1nc(C#Cc2nc(-c3ccccc3)cn2C)nc2c1ncn2C [Example 21, (R)-3-Methyl-4-(9-methyl-2-((1-methyl-4-phenyl-1H-imidazol-2-yl)ethynyl)-9H-purin-6-yl)morpholine] | 0.417 | 10.30
Cn1cnc2c(N3C[C@H]4COC[C@H]4C3)nc(C#Cc3nc(-c4ccccc4)c[nH]3)nc21 [Example 28, (3aR,6aS)-5-(9-Methyl-2-((4-phenyl-1H-imidazol-2-yl)ethynyl)-9H-purin-6-yl)hexahydro-1H-furo[3,4-c]pyrrole] | 33.9 | 9.34
Cn1cc(-c2ccccc2)nc1C#Cc1nc2c(c(N3CCOCC3)n1)CCNC2 [Example 11, 4-[2-[2-(1-Methyl-4-phenyl-imidazol-2-yl)ethynyl]-5,6,7,8-tetrahydropyrido[3,4-d]pyrimidin-4-yl]morpholine] | 1.86 | 9.80
Cn1cc(-c2ccccc2)nc1C#Cc1nc2c(c(N3CCOCC3)n1)CCN(CC1CC1)C2 [Example 15, 4-[7-(Cyclopropylmethyl)-2-[2-(1-methyl-4-phenyl-imidazol-2-yl)ethynyl]-6,8-dihydro-5H-pyrido[3,4-d]pyrimidin-4-yl]morpholine] | 562 | 8.72
C[C@H]1COCCN1c1nc(C#Cc2nc(-c3cccnc3)c[nH]2)nc2c1ncn2C [Example 33, (S)-3-Methyl-4-(9-methyl-2-((4-(pyridin-3-yl)-1H-imidazol-2-yl)ethynyl)-9H-purin-6-yl)morpholine] | 17.4 | 8.68
C(#Cc1nc(-c2ccccc2)c[nH]1)c1nc(N2C[C@H]3COC[C@H]3C2)c2cnn(C3COC3)c2n1 [Example 27, (3aR,6aS)-5-(1-(Oxetan-3-yl)-6-((4-phenyl-1H-imidazol-2-yl)ethynyl)-1H-pyrazolo[3,4-d]pyrimidin-4-yl)hexahydro-1H-furo[3,4-c]pyrrole] | 32.4 | 9.49
Cn1cnc2c(N3CC4(COC4)C3)nc(C#Cc3nc(-c4ccccc4)cn3CC3CCOCC3)nc21 [Example 4, 6-[9-Methyl-2-[2-[4-phenyl-1-(tetrahydropyran-4-ylmethyl)imidazol-2-yl]ethynyl]purin-6-yl]-2-oxa-6-azaspiro[3.3]heptane] | 6.31 | 9.00
C[C@@H]1COCCN1c1nc(C#Cc2nc(-c3ccccc3)c[nH]2)nc2c1ncn2C [Example 29, (R)-3-Methyl-4-(9-methyl-2-((4-phenyl-1H-imidazol-2-yl)ethynyl)-9H-purin-6-yl)morpholine] | 3.47 | 9.92
Cn1cc(-c2ccccc2)nc1C#Cc1nc2c(c(N3CCOCC3)n1)CCN(C1COC1)C2 [Example 14, 4-[2-[2-(1-Methyl-4-phenyl-imidazol-2-yl)ethynyl]-7-(oxetan-3-yl)-6,8-dihydro-5H-pyrido[3,4-d]pyrimidin-4-yl]morpholine] | 1.78 | 9.35
Cn1cnc2c(N3C[C@H]4COC[C@H]4C3)nc(C#Cc3nc(-c4cccnc4)c[nH]3)nc21 [Example 31, (3aR,6aS)-5-(9-Methyl-2-((4-(pyridin-3-yl)-1H-imidazol-2-yl)ethynyl)-9H-purin-6-yl)hexahydro-1H-furo[3,4-c]pyrrole] | 3.98 | 8.95
Cn1cc(-c2ccccc2)nc1C#Cc1nc(N2CC3(COC3)C2)c2cnn(CC3CNC3)c2n1 [Example 8, 6-[1-(Azetidin-3-ylmethyl)-6-[2-(1-methyl-4-phenyl-imidazol-2-yl)ethynyl]pyrazolo[3,4-d]pyrimidin-4-yl]-2-oxa-6-azaspiro[3.3]heptane] | 5.75 | 8.45
C[C@H]1COCCN1c1nc(C#Cc2nc(-c3ccccc3)cn2C)nc2c1CCNC2 [Example 13, (3S)-3-Methyl-4-[2-[2-(1-methyl-4-phenyl-imidazol-2-yl)ethynyl]-5,6,7,8-tetrahydropyrido[3,4-d]pyrimidin-4-yl]morpholine] | > 1000 | 8.92
CN(C)CCOc1cccc(-c2c[nH]c(C#Cc3nc(N4C[C@H]5COC[C@H]5C4)c4cnn(C)c4n3)n2)c1 [Example 10, 2-[3-[2-[2-[4-[(3aS,6aR)-1,3,3a,4,6,6a-Hexahydrofuro[3,4-c]pyrrol-5-yl]-1-methyl-pyrazolo[3,4-d]pyrimidin-6-yl]ethynyl]-1H-imidazol-4-yl]phenoxy]-N,N-dimethyl-ethanamine] | 0.661 | 10.4
C[C@H]1COCCN1c1nc(C#Cc2nc(-c3ccccc3)cn2C)nc2c1ncn2C [Example 22, (S)-3-Methyl-4-(9-methyl-2-((1-methyl-4-phenyl-1H-imidazol-2-yl)ethynyl)-9H-purin-6-yl)morpholine] | – | 9.22
CCn1ncc2c(N3C[C@H]4COC[C@H]4C3)nc(C#Cc3nc(-c4ccccc4)cn3C)nc21 [Example 17, (3aR,6aS)-5-(1-Ethyl-6-((1-methyl-4-phenyl-1H-imidazol-2-yl)ethynyl)-1H-pyrazolo[3,4-d]pyrimidin-4-yl)hexahydro-1H-furo[3,4-c]pyrrole] | 0.331 | 10.50
Cn1cnc2c(N3CC4(COC4)C3)nc(C#Cc3nc(-c4ccccc4)c[nH]3)nc21 [Example 7, 6-[9-Methyl-2-[2-(4-phenyl-1H-imidazol-2-yl)ethynyl]purin-6-yl]-2-oxa-6-azaspiro[3.3]heptane] | 2.95 | 9.22
Cn1cc(-c2ccccc2)nc1C#Cc1nc(N2C[C@H]3COC[C@H]3C2)c2cnn(C)c2n1 [Example 23, (3aR,6aS)-5-(1-Methyl-6-((1-methyl-4-phenyl-1H-imidazol-2-yl)ethynyl)-1H-pyrazolo[3,4-d]pyrimidin-4-yl)hexahydro-1H-furo[3,4-c]pyrrole] | 0.245 | 10.40
C(#Cc1nc(-c2ccccc2)c[nH]1)c1nc(N2C[C@H]3COC[C@H]3C2)c2cnn(CC3CC3)c2n1 [Example 26, (3aR,6aS)-5-(1-(Cyclopropylmethyl)-6-((4-phenyl-1H-imidazol-2-yl)ethynyl)-1H-pyrazolo[3,4-d]pyrimidin-4-yl)hexahydro-1H-furo[3,4-c]pyrrole] | – | 9.99

Source: patent US20240343729A1 (priority 2021, published 2024)
